According to PubChem BioAssay AID1259321 (Sanford-Burnham Center for Chemical Genomics, 2017):
The source made the active and inactive calls.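 The calls were made as follows: active = half-maximal concentration for changing protein binding to DNA, from the fitted dose curve, below 10 micromolar; inactive = the rest.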

target: Nuclear receptor subfamily 1 group D member 1 (Homo sapiens) (UniProt P20393); assay: Rev-erbα–DNA interaction modulators – biochemical, FITC-DNA, fluorescence polarization, dose response (AID 1259321); details: Rev-erb alpha-FITC-DNA binding
Sequence (P20393 whole entry, looked up): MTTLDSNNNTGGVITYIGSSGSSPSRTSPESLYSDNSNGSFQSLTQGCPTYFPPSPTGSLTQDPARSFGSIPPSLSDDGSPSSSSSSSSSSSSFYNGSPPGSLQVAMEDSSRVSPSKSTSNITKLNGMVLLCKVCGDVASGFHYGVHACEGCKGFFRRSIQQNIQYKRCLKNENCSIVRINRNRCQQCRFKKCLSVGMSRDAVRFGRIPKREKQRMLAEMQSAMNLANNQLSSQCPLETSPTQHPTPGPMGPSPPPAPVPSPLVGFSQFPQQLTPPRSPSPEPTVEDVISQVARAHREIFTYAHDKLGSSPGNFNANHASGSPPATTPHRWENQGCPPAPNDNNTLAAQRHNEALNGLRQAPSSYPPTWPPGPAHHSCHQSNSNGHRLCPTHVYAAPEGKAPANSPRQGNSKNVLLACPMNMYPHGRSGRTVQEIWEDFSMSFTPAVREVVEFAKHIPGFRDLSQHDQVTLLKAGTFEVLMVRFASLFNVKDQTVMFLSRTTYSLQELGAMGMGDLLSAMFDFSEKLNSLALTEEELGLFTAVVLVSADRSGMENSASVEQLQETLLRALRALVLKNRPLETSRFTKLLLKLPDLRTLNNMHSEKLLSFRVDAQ

| Compound | IC50 |
| --- | --- |
| CCc1ccc(NC(=O)CSc2nc3ncc(Br)cc3[nH]2)cc1 | 1.53 µM |
| CN1CCS/C1=C/C=C1\SC(=S)N(CC(=O)O)C1=O | 1.12 µM |
| Cc1ccc2nc(SCC(=O)Nc3ccc4sc(C)nc4c3)c(C#N)cc2c1 | > 40 µM (inactive) |
| Fc1cccc2sc(Nc3nc4cc5c(cc4s3)OCCO5)nc12 | inactive |
| O=C(CSc1nc2ccccc2c(=O)n1-c1ccc(F)cc1)Nc1ccc(Cl)c(S(=O)(=O)N2CCOCC2)c1 | 2.38 µM |
| O=C(CSc1nnc(-c2cccs2)n1-c1ccccc1)N1CCCc2ccccc21 | > 40 µM (inactive) |
| COCCn1c(=NC(=O)c2nc3ccccc3s2)sc2cc(S(C)(=O)=O)ccc21 | 4.6 µM |
| CCOc1ccc(CC(=O)Nc2sc(Cc3ccccc3)cc2C(N)=O)cc1OCC | > 40 µM (inactive) |
| Cc1ccc(S(=O)(=O)c2nnn3c2nc(N2CCN(c4ccccn4)CC2)c2ccccc23)cc1 | 0.876 µM |
| CCCCc1nc2sc3c(SCCN(C)C)ncnc3c2c2c1CCC2 | 7.04 µM |
| Cc1coc(NC(=O)CSc2nc(-c3ccc(Cl)cc3)cc(C(F)(F)F)c2C#N)n1 | inactive |
| COc1ccc(-c2cc3c(=O)n(CC(=O)Nc4ccc(C(C)=O)cc4)ncn3n2)cc1 | inactive |
| CCOC(=O)c1nn(-c2ccc(F)cc2)c(=O)cc1OCC(=O)Nc1ccc(F)c(F)c1 | > 40 µM (inactive) |
| Cn1c(=O)c(NCCc2ccccc2)c2c3c(cccc31)C(=O)c1ccccc1-2 | inactive |
| COCCN1C(=O)/C(=C/c2ccc(N3CCCC3)cc2C)SC1=S | 6.19 µM |
| O=C(N=c1ccn(-c2nc3ccccc3nc2NS(=O)(=O)c2ccccc2)cc1)c1cccs1 | inactive |
| CCNC(=O)C[C@H]1CC[C@H]2[C@@H](COc3ccc(NC(=O)c4ccc5c(c4)OCO5)cc3C(=O)N2C)O1 | inactive |
| CC1=NN(c2ccccc2)C(=O)/C1=C\C=C1\N(C)c2ccccc2C1(C)C | inactive |
| Cc1ccc(-c2c(C#N)c(N)n(-c3ccc(Cl)cc3)c(=O)c2C#N)cc1 | inactive |
| COc1cc(C=Cc2nnc3c4ccccc4cnn23)cc(OC)c1OC | inactive |
| O=C(CSc1nc2ccccc2nc1N1CCCCC1)N1CCN(S(=O)(=O)c2cc(Cl)ccc2Cl)CC1 | 4.85 µM |
| CCN1/C(=C\c2ccc3ccccc3[n+]2CC)Sc2cc(C)ccc21 | 2.67 µM |
| Cc1cc(OC(C)C(=O)NCc2cccnc2)c2c(C)c(Cc3ccccc3)c(=O)oc2c1 (stereo not drawn) | inactive |
| CCCSc1nc(SCC(=O)NCc2ccccc2)c2c3c(sc2n1)COC(C)(CC)C3 (stereo not drawn) | > 40 µM (inactive) |
| Fc1ccc2nc(Nc3nc4cc5c(cc4s3)OCCO5)sc2c1 | 6.87 µM |
| Oc1ccccc1N=Nc1nc(-c2ccccc2)c(-c2ccccc2)[nH]1 | 3.98 µM |

| Compound | IC50 |
| --- | --- |
| Nc1ccc2c3c(cccc13)C(=O)N(c1ccccc1)C2=O | inactive |
| COc1ccccc1N=Nc1nc(-c2ccccc2)c(-c2ccccc2)[nH]1 | 0.465 µM |
| CSc1ccccc1-c1nnc(-c2ccc(Cl)c(Cl)c2)o1 | 8.81 µM |
| COc1ccc(C(C)=O)cc1CSc1nc2ccccc2c(=O)n1-c1ccccc1 | > 40 µM (inactive) |
| CCOC(=O)Nc1ccc2c(COC(=O)CNS(=O)(=O)c3ccc(NC(C)=O)cc3)cc(=O)oc2c1 | 0.548 µM |
| CC(=O)c1ccc(NC(=O)COC(=O)c2ccccc2Sc2ccccc2C#N)cc1 | > 40 µM (inactive) |
| Cc1ccc2cc(C#N)c(SCC(=O)NNC(=O)Cc3ccccc3)nc2c1 | 4.25 µM |
| COc1ccc2[nH]c(C(=O)Nc3ccc(F)cc3Br)cc2c1 | > 40 µM (inactive) |
| CN1C(=O)C(=Cc2ccc(N3CCOCC3)o2)C(=O)N(C)C1=S | 4.11 µM |
| CN(C)c1ccc(N=Nc2ccccc2C(=O)OCC(=O)N2CCCCCC2)cc1 | inactive |
| COc1ccc(-c2c(C)nc3c(-c4ccsc4)cnn3c2N)cc1 | 9.42 µM |
| CC(=O)Nc1ccc(Nc2c3c4c(cccc4n(C)c2=O)C(=O)c2ccccc2-3)cc1 | 5.25 µM |
| COC(=O)c1cccc(Cn2ccc3ccc(-c4ccc5ccn(C(=O)c6cccc(OC)c6)c5c4)cc32)c1 | > 40 µM (inactive) |
| COC(=O)c1ccc(NC(=O)c2cn(-c3ccccc3)nc2-c2ccncc2)cc1 | > 40 µM (inactive) |
| CCC(=O)c1cn(CC(=O)Nc2cccc(C)c2)c2ccccc12 | > 40 µM (inactive) |
| CCOC(=O)/C(C#N)=C/C=C1\C=Cc2ccccc2N1CC | > 40 µM (inactive) |
| CCOC(=O)N1CCC(n2c(SCC(=O)c3ccccc3)nc3ccsc3c2=O)CC1 | 2.26 µM |
| CCc1nc(SCC(=O)NC2CCCC2)c2oc3ccccc3c2n1 | > 40 µM (inactive) |
| CSc1ccc(CCNC(=O)c2cc(-c3ccccc3)c(N3CCOCC3)s2)cc1 | 2.74 µM |
| Cc1nc(SCC(=O)NCc2ccccc2)c2oc3ccccc3c2n1 | 4.18 µM |
| O=c1oc2c3c4c(cc2c(C(F)(F)F)c1CCN1CCOCC1)CCCN4CCC3 | inactive |
| CN(C)c1nc(-c2cccnc2)nc(-c2ccccc2)c1C#N | inactive |
| CCOC(=O)/C(=C\C=C1/Sc2cc(OCC)c(OCC)cc2N1CC)C(C)=O | 5.55 µM |
| COCCn1c(=NC(=O)c2ccco2)sc2cc(C(=O)OC)ccc21 | 4.87 µM |
| COc1ccc2nc(SCC(=O)Nc3ccc(S(=O)(=O)N4CCCC4)cc3)c(C#N)cc2c1 | inactive |
| CCCOc1ccc(/C(CC)=N/NC(=O)C2(C)CC2(Br)Br)cc1 (stereo not drawn) | inactive |

| Compound | IC50 |
| --- | --- |
| CCOC(=O)/C(C#N)=C/c1cc2ccccc2nc1N1CCCCC1 | > 40 µM (inactive) |
| COc1cc(-c2ccc3c(=O)c4ccccc4sc3c2)cc(OC)c1OC | 2.86 µM |
| Cc1nn(C)c(C)c1NC(=O)CSc1nc(-c2ccccc2Cl)nc2c1cnn2-c1ccccc1 | 0.879 µM |
| CCOc1ccc(NC(=O)CNC(=O)c2nn(-c3ccc(OC)c(OC)c3)c(=O)c3ccccc23)cc1 | 7.23 µM |
| COc1nc(-c2ccc(Cl)cc2)ccc1-c1noc(-c2cccs2)n1 | inactive |
| COc1ccc(C(=O)/C(C#N)=N/Nc2ccc([N+](=O)[O-])cc2)cc1 | > 40 µM (inactive) |
| Cc1[nH]nc2nc(SCC(=O)NC3CCCCC3)n(-c3ccc(Br)cc3)c(=N)c12 | 5.74 µM |
| Cc1nc(SCC(=O)Nc2ccccc2)c2oc3ccccc3c2n1 | inactive |
| CCN1/C(=C/c2ccc3cc(C)ccc3[n+]2CC)Sc2cc(C)ccc21 | > 40 µM (inactive) |
| Nc1ccc(-c2c3ccc(=O)cc-3oc3cc(O)ccc23)cc1C(=O)O | 5.38 µM |
| COc1cccc(-n2nnnc2SCC(=O)Nc2ccc3c(c2)OCCO3)c1 | inactive |
| CCn1c(=O)cc(SCC(=O)Nc2ccc(Cl)cc2)c2ccccc21 | 5.59 µM |
| COc1ccc(C)cc1NC(=O)c1cc2c(=O)n3ccccc3nc2n1C | 3.91 µM |
| CCc1nc2ccccc2c(C(=O)OCc2nc3ccccc3c(=O)[nH]2)c1C | > 40 µM (inactive) |
| O=c1[nH]c(Cc2ccc(F)cc2)nc2scc(-c3ccc(F)cc3)c12 | 9.5 µM |
| COc1ccc(NC(=O)CSc2nc(N)c(C#N)cc2C#N)cc1 | 5.76 µM |
| O=C1c2cccc3c(O)ccc(c23)C(=O)N1Cc1ccccc1 | inactive |
| CC[n+]1ccc(/C=C/c2c[nH]c3ccccc23)cc1 | inactive |
| CCOc1ccc(NC(=O)CCSc2ccc3ccccc3n2)cc1 | 5.15 µM |
| O=C(CCCC(=O)OCC(=O)c1cccs1)Nc1ccc(Oc2ccccc2)cc1 | inactive |
| CN(C)c1ccc(C=Cc2nccc3ccccc23)cc1 | > 40 µM (inactive) |
| Cc1cc(C)c(NC(=O)CSc2nc(COc3ccccc3)nc3ccccc23)c(C)c1 | 3.42 µM |
| CCN1C(=O)/C(=C\N2CCN(c3ccc(F)cc3)CC2)SC1=S | > 40 µM (inactive) |
| COC(=O)c1ccc2nc(Nc3nc4c(F)cc(F)cc4s3)sc2c1 | 2.14 µM |
| CCc1nc(SCC(=O)NCCc2ccccc2)c2oc3ccccc3c2n1 | 1.57 µM |
| Cc1cccc(N2CCN(c3ccc4cc(S(=O)(=O)N5CCCCC5)ccc4n3)CC2)c1C | > 40 µM (inactive) |

| Compound | IC50 |
| --- | --- |
| COc1ccc(-c2cc(-c3ccccc3)c(C#N)c(SCC(=O)Nc3ncc(C)s3)n2)cc1 | 3.58 µM |
| CCc1nc(SCC(=O)NCc2ccco2)c2c3c(sc2n1)CCCC3 | inactive |
| O=[N+]([O-])c1ccc(O)c(-c2cc(C(F)(F)F)nc(-c3ccccc3)n2)c1 | > 40 µM (inactive) |
| Fc1ccc2nc(Nc3nc4c(F)cc(F)cc4s3)sc2c1 | 7.05 µM |
| Cc1nc(N2CCC(C)CC2)c2c(C)c(C(=O)Nc3ccc(C)c(F)c3)sc2n1 | > 40 µM (inactive) |
| CCOC(=O)c1c(C2CC2)csc1NC(=O)COC(=O)c1cnc(Cl)c(Cl)c1 | inactive |
| C/C(=N\N(Cc1ccccc1)c1ccccc1)c1ccncc1 | 6.97 µM |
| Cc1nonc1NC(=O)CSc1nc2ccccc2cc1C#N | inactive |
| CCOC(=O)c1sc(NC(=S)NC(=O)C2CCCC2)cc1C | 1.8 µM |
| CCOC(=O)c1c(NC(=O)CSc2nc3ccccc3s2)sc(C(C)=O)c1C | inactive |
| COC(=O)c1sc2nc3c(cc2c1N)C(=O)CC(C)(C)C3 | inactive |
| Nc1c2c(nc3ccccc13)CCN(Cc1ccccc1)C2 | inactive |
| CCN1C(=O)/C(=C\N2CCN(c3cccc(Cl)c3)CC2)SC1=S | 8.83 µM |
| CCOC(=O)c1ccc(CNC(=O)CSc2nc(NC(=O)c3ccccc3)c3c(C)c(C)oc3n2)cc1 | inactive |
| O=C(CSc1nc2c(c(C(F)(F)F)n1)CCc1ccccc1-2)NCc1ccccc1 | 4.21 µM |
| CCOc1cccc2sc(NC(=O)c3ccc(Br)s3)nc12 | > 40 µM (inactive) |
| COc1ccccc1-c1nc(SCC(=O)Nc2cc(C)on2)c2c(=O)n(C)c(=O)n(C)c2n1 | 5.36 µM |
| COc1ccc(OC)c(-c2csc(NC(=O)c3ccc4c(c3)OCO4)n2)c1 | 3.24 µM |
| C#CCn1c(=NC(=O)c2ccc(Br)s2)sc2cccc(OC)c21 | 2.4 µM |
| Oc1ccccc1-c1nc(N2CCCC2)c2ccccc2n1 | 2.1 µM |
| COc1cccc(NC(=O)CSc2ncnc3c2oc2ccccc23)c1 | > 40 µM (inactive) |
| Cn1cncc1C#Cc1ccc2cc(C3(O)CCCCC3)oc(=O)c2c1 | inactive |
| CCCN1C(=O)S/C(=C/c2ccc(N3CCOCC3)o2)C1=O | 5.84 µM |
| Fc1ccc(-n2c(-c3cccs3)nc3nc4ccccc4nc32)cc1 | 4.41 µM |
| Cc1ccc(NC(=S)Nc2nc(CC(=O)Nc3ccccc3)cs2)cc1 | 3.84 µM |
